Laboratory results as given in US20190290656A1, “PT(IV) PRODRUGS” (YISSUM RESEARCH DEVELOPMENT COMPANY OF THE HEBREW …, priority 2015, published 2019).
Where two headings read alike, the source gives them in different places.

Assays:
[1] = test system: PSN-1 spheroids; experiment: 3D spheroid APH assay, PSN-1; assay type: cell-based, human; settings: for IC50: PSN-1 spheroids, 72 h, APH test
From the text: (§1) Acid phosphatase (APH) assay. A modified APH assay, which is based on quantification of cytosolic acid phosphatase activity, was used for determining cell viability in spheroids. […] Triplicate cultures were established for each treatment. […] Evaluation was based on means from at least four independent experiments.
(§2) In order to improve the predictive capacity of the in vitro assays, we tested the activity in three three-dimensional (3D) cell cultures; human colon cancer cells, HCT-15, and human pancreatic cancer cells, KRAS wild type BxPC3 cells KRAS mutated PSN-1 cells. The cancer spheroids were treated with 3a and 3b for 72 h and the cell viability was assessed by means of the APH assay (Table 6). For comparison purposes, the cytotoxicities of CDDP and OXP were evaluated under the same experimental conditions.

[2] = test system: Histone deacetylase (HDAC); experiment: Histone deacetylase assay in 2008 cells; assay type: cell-based, human; settings: 24 h, IC50 concentrations
Experimental: (§3) Histone deacetylase assay. Histone deacetylase activity was determined using Fluor-de-Lys® HDAC fluorometric activity assay kit (Enzo Life Sciences International, Inc., Plymount Meeting, Pa., U.S.A.). 2008 and PSN1 cells (5.10^4 seeded in 96-well microplates) were treated for 24 h with tested complexes, and then processed as reported by the manufacturer's instructions. Fluorescence was measured using a Fluoroskan Ascent FL (Labsystem, Finland) plate reader, with excitation at 360 nm and emission at 460 nm.
(§4) Thus, we measured both the levels of DNA platination and the ability of these pro-drugs to inhibit HDAC activity in cancer cells.

[3] = test system: human embryonic kidney HEK293 cells; experiment: MTT cytotoxicity against non-tumor cells; assay type: cell-based; settings: for IC50: HEK293 non-tumor cells, 72 h, MTT; for SI (selectivity index): ratio between average IC50 of non-tumor cells and IC50 of malignant cells
Experimental: (§5) MTT assay. […] Triplicate cultures were established for each treatment.
The cytotoxic activity of derivatives 3a and 3b was also evaluated against non-tumor cells, namely human embryonic kidney HEK293 cells (Table 7). Both compounds 3a and 3b were more cytotoxic than CDDP.

[4] = test system: Histone deacetylase (HDAC); experiment: Histone deacetylase assay in PSN-1 cells; assay type: cell-based, human; settings: 24 h, IC50 concentrations
Experimental: as §3, §4

[5] = test system: 2008 cells; experiment: MTT cytotoxicity assay, 2008; assay type: cell-based, human; settings: for IC50: 2008, 72 h, MTT
Experimental: as §5
(§6) The two dimers, 3a and 3b, as well as compounds 1a and 2a were screened against six human cancer cell lines representative of lung (H157), colon (HCT-15), cervical (A431), ovarian (2008) and pancreatic (PSN1) cancers, along with melanoma (A375). Cytotoxicity was evaluated by means of the MTT test after 72 h of treatment and the in vitro antitumor potential of newly synthesized derivatives was compared to that of the reference metallo-drugs CDDP and OXP.

[6] = test system: BxPC3 spheroids; experiment: 3D spheroid APH assay, BxPC3; assay type: cell-based, human; settings: 72 h, APH test
From the text: as §1, §2

[7] = test system: HCT-15 cells; experiment: MTT cytotoxicity assay, HCT-15; assay type: cell-based, human
Summary of the method: (§7)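 MTT viability read-out in HCT-15 and A375 human cancer cells after 72 h compound exposure; triplicate cultures per treatment.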

[8] = Reduction in buffer in the presence of ascorbic acid; assay type: physicochemical; settings: 1 Eq ascorbic acid, phosphate buffer, RT, 2 hours
Experimental: A solution 2.0 mM of 3a (Scheme 4) in buffer was treated with 1 Eq ascorbic acid. NMR measurements were performed over a 2 hour time frame.
In order to assay which of the two Pt metal centers of 3a is more prone to be reduced, we added 1 Eq of ascorbic acid to a solution of 3a in phosphate buffer. […] Finally, we carried out the reaction at RT and not at 37° C. to avoid a fast reduction process that would have made more complicated its study.
The reaction was monitored by ^1H NMR spectroscopy (FIG. 9). Already after 2 min, time needed to prepare the sample and start the NMR experiment, besides the signals belonging to 3a, previously discussed, it was possible to note the signal belonging to [Pt(DACH)(56Phen)]^2+, free phenyl butyric acid and a signal at 6.34 ppm, consistent with a DCA moiety coordinated to a Pt(IV) metal center. These signals indicated the reduction of the phenanthroline-bonded Pt unit of 3a to [Pt(DACH)(56Phen)]^2+, and the release of the axial ligands, […] and c,c,t-[Pt(NH3)2(DCA)(OOCCH2CH2CH2NHCOCH2CH2COOH)] (5). We were not able to isolate the latter species. […] The reaction was monitored for about 2 hours. In FIG. 9 are reported the spectra recorded after 9, 21 and 59 min. In the second hour, no changes were detected.

[9] = test system: HCT-15 spheroids; experiment: 3D spheroid APH assay, HCT-15; assay type: cell-based, human; settings: for IC50: HCT-15 spheroids, 72 h, APH test
From the text: as §1, §2

[10] = test system: PSN-1 cells; experiment: Nuclear DNA fragmentation ELISA, PSN-1; assay type: cell-based, human; settings: 48 h, IC50
Experimental: FIGS. 13A-13B provide: FIG. 13A) Cytochrome c release. […] FIG. 13B) Nuclear DNA fragmentation. […] Quantitative estimation of DNA fragmentation was obtained with an ELISA test. Data are the means of five independent experiments. Error bars indicate SD.
After 48 h of treatment a roughly 20-fold increase in histone-DNA formation was detected with 3a with respect to controls.

[11] = test system: PSN1 cells; experiment: MTT cytotoxicity assay, PSN1; assay type: cell-based, human; settings: for IC50: PSN1, 72 h, MTT
Experimental: as §5, §6

[12] = test system: A431 cells; experiment: MTT cytotoxicity assay, A431; assay type: cell-based, human; settings: A431, 72 h
Experimental: as §5, §6

[13] = test system: H157 cells; experiment: MTT cytotoxicity assay, H157; assay type: cell-based, human; settings: H157, 72 h
Experimental: as §5, §6

[14] = test system: A375 cells; experiment: MTT cytotoxicity assay, A375; assay type: cell-based, human
Summary of the method: as §7

[15] = test system: BxPC3 cells; experiment: MTT cytotoxicity assay, BxPC3; assay type: cell-based, human; settings: BxPC3, 72 h exposure, MTT; read-out: IC50 (median growth inhibitory concentration)
[16] = HCT-15, 72 h, MTT (Table 5), read-out: IC50 (μM) ± S.D.
[17] = A375, 72 h, MTT (Table 5), read-out: IC50 (μM) ± S.D.

Molecule	IC50 [1] [µM]	HDAC activity hampered [2]	IC50 [3] [µM]	SI (selectivity index) [3]	HDAC activity hampered [4]	IC50 [5] [µM]	IC50 [6] [µM]	IC50 [7, 16] [µM]	IC50 [9] [µM]	IC50 [11] [µM]	IC50 [12] [µM]	IC50 [13] [µM]	IC50 [14, 17] [µM]	other results
c,c,t,t,c,c-[(DACH)(56Phen)(PhBu)Pt(μ-OOC—(CH2)2—CONH(CH2)3COO)—Pt(DCA)(NH3)2 (Cl2)](TFA)2 [Compound 3a]	10.3 ± 4.85	about 8%	2.25 ± 0.29	5.5	~10%	0.79	59.1 ± 3.84	0.36 ± 0.08	40 ± 4.58	0.09	0.2 ± 0.09	0.95 ± 0.08	0.08 ± 0.01	factor by which activity exceeded that of the reference drugs ([1]; PSN-1 3D model): about 6 fold; times SI better than that of cisplatin [3]: about 2 fold; reduction by ascorbic acid (in words) [8]: faster reduction of the phenanthroline-bonded Pt unit; times more effective than CDDP ([9]; HCT-15 3D model): about 2 fold; fold increase in histone-DNA formation with respect to controls [10]: roughly 20 fold; times more effective than CDDP ([11]; PSN1 cells): up to 200 fold; times more effective than OXP ([11]; PSN1 cells): ≤ 92 fold
[NH2][Pt]([NH2])([Cl])[Cl] [CDDP, Cisplatin, reference compound]	59.9 ± 12.9	not effective in modifying HDAC activity	19.6 ± 2.95	2.7	not effective in modifying HDAC activity	2.22	69.6 ± 8.21	15.3 ± 2.63	89.2 ± 3.44	18.2	1.65 ± 0.51	3.28 ± 2.38	3.11 ± 0.98	IC50 [15]: 11.4 ± 1.14 µM; fold more potent than 3b ([5]; 2008 cells): ~3 fold; IC50 ([7]; HCT-15, 72 h exposure, MTT (Table 1), read-out: IC50 (median growth inhibitory concentration)): 11.3 ± 1.06 µM; IC50 ([14]; A375, 72 h exposure, MTT (Table 1), read-out: IC50 (median growth inhibitory concentration)): 4.03 ± 0.95 µM
